These results are taken from patent US5854279A, “Therapeutic agent for dermatosis” (Eisai Co., Ltd, priority 1996, dated 1998).

One series concerns MPO (myeloperoxidase). Nature of the series: MPO activity in TPA-treated earlobe. Conditions: for MPO Activity: TPA 2 μmol, average of seven cases ± SEM. Type of series: in vivo, BALB/c mouse. As to the method:
(§1) The mixture was applied to inner surface of the right earlobe of BALB/c mouse (male, age in week of 8), to induce inflammation. Four hours after TPA application, the mouse was killed by dislocation of cervical vertebrae and the thickness of each right and left earlobe was measured by using a Dial Thickness Gauge (manufactured by Peacock Co., G0.01 to 10 mm) and the difference in thickness between right and left earlobe was considered as edema.
2) Measurement of MPO Activity
After measurement of edema, MPO (myeloperoxidase) activity of the excised right earlobe was measured by the following method. 1 ml of 0.5% HTAB (hexadecyl trimethylammonium bromide, manufactured by Sigma Chemical Co.)/50 mM potassium phosphate buffer, pH 6.0 was added to the excised right earlobe and homogenized. The supernatant obtained after centrifugation was used as an extract. Measurement of MPO activity in the extract was carried out according to a method using a 96-well plate. […] Absorbance at 450 nm was measured for 3 minutes at every 10 seconds. The slope of the straight line obtained for 1 minute after 10 seconds from the beginning of the reaction was calculated for every each sample. MPO activity when the slope is 1 is defined as 1 unit (U), and number of unit in the extract was obtained. Further, the amount of protein in the extract was quantified by BIO-RAD PROTEIN ASSAY (manufactured by Bio-Rad Laboratories), and expressed as MPO activity/mg protein.

The test system of series [1] is TPA-induced earlobe edema. The series is described as follows: TPA-induced ear edema. The format is in vivo, BALB/c mouse. Particulars: for Right earlobe edema: TPA 2 μmol, average of seven cases ± SEM. The procedure:
The test was conducted according to the method by Carlson et al. (Agents and Actions, 1985, 17(2), p 197-204).
as §1, with “That is, 2 mg of TPA (phorbol 12-myristate 13-acetate, manufactured by Sigma Chemical Co.) and 4 to 100 nmol of Compound (II) or 250 nmol of dexamethasone (manufactured by Sigma Chemical Co.) were dissolved in […] of acetone. The” for “The”

Series [2] has as its system epidermal ornithine decarboxylase (ODC). The series is described as follows: TPA-induced mouse epidermal ornithine decarboxylase (ODC) activity. The format is in vivo, hairless mouse (SKH/hr-1). Conditions: for Epidermal ODC Activity: TPA 17 nmol, average of five cases ± standard error. The procedure: (2) Measurement of Mouse Epidermal Ornithine Decarboxylase (ODC) Activity
1) Induction of ODC Activity
The experiment was carried out according to the method by O'Brien et al. (Cancer Research, 1975, 35(2), p 1662-1670).
[…] of acetone solution containing 17 nmol of TPA (phorbol 12-myristate 13-acetate, manufactured by Sigma) and 0.5 to 2 μmol of Compound (II) or 2-(2-acetyl-6-methoxy-3,9-dioxo-4,8-dioxa-2,10-diazaoctacosa-1-yl)-1-ethylpyridinium salt (customary name; CV-6209, manufactured by Wako Junyaku) was homogeneously applied on the skin of the back (about 8 cm^2) of the hairless mouse (strain: SKH/hr-1, female, age in week of 9). After 4.5 hours, mouse was killed by anesthetizing with ether, and skin tissue was excised. The skin tissue was treated at 55° C. for 30 seconds, then ice-cooled and the epidermis was peeled off. To this epidermis, 1 ml of 50 mM sodium phosphate buffer [pH 7.2, 0.4 mM pyridoxal 5-phosphate (manufactured by Sigma), 5 mM dithiothreitol (manufactured by Sigma)] were added, homogenized and then centrifuged at 4° C. and 30,000 g for 30 minutes to obtain a supernatant.
2) Measurement of ODC Activity
ODC activity in the supernatant was measured by ^14 CO2 release from L-[1-^14 C]ornithine (manufactured by Sigma) as an index. A tube containing 50 μl of the above buffer comprising 1 mM L-ornithine and […] L-[1-^14 C]ornithine (manufactured by Amersham) as well as 100 μl of homogenate sample added thereto was rapidly placed into a vial, and sealed. This vial was incubated at 37° C. for one hour, to which was added 0.3 ml of 2M citric acid solution and further incubated for one hour. ^14 CO2 released during this period was trapped by using a filter containing 0.15 ml of NCS solubilizer set in the reaction vial. After removing out the tube, 15 ml of liquid scintillator (ACSII) was added and radioactivity in the vial was measured by using a liquid scintillation counter.
Further, the concentration of protein in the homogenate sample was quantified by using the above BIO-RAD PROTEIN ASSAY, and the amount of the released ^14 CO2 /mg protein was calculated and used as an index of ODC activity.

A short description of series [3]: Acute toxicity test, single intravenous dosage (LD50), rat. The arrangement: species or system rat (Slc:SD). Conditions: in vivo. The source says:
(§2) Slc:SD rat and Slc:ICR mice (age in week of 6 to 8), each group has 5 male and 5 female, were applied to a toxicity test upon single dosage carried out by intravenous administration.

Series [4] is described as follows: Acute toxicity test, single intravenous dosage (LD50), mouse. The arrangement: species or system mouse (Slc:ICR). Conditions: in vivo.
Description: as §2

[5] abbreviates: 2 μmol, Compound (II) p < 0.01 vs. TPA control.
The mark [6] stands for this setting: 2 μmol, significant for Compound (II).

Where a name gives a salt, the structure may show the parent alone.

Turning to `C[C@@H]1C[C@H]2[C@@H]3CCC4=CC(=O)C=C[C@]4(C)[C@@]3(F)[C@@H](O)C[C@]2(C)[C@@]1(O)C(=O)CO` [Dexamethasone, dexamethasone, reference compound], the “inhibition against MPO activity” value in the series on MPO (myeloperoxidase) (250 nmol/ear) is recorded as “about 13%”. The “MPO Activity” value with MPO (myeloperoxidase) (250 nmol/earlobe) is on record as 5.52 ± 0.59 U/mg, protein. Besides, the “inhibition for TPA-induced earlobe edema” value in series [1] (250 nmol/ear, significant) is listed as “about 60%”. In series [1] (250 nmol/earlobe, P < 0.05), this molecule yielded a Right earlobe edema of 34.7 ± 3.3 μm.
In the case of `CCCCCCCCCCCCCCCCCCNC(=O)OCC(COC(=O)N(Cc1cccc[n+]1CC)C(C)=O)OC` (centres unmarked) [CV-6209, 2-(2-acetyl-6-methoxy-3,9-dioxo-4,8-dioxa-2,10-diazaoctacosa-1-yl)-1-ethylpyridinium salt], the “Epidermal ODC Activity” value in series [2] (setting [5]) is 0.374 ± 0.147 nmol CO2 /mg protein. The “inhibition of TPA-induced increase in epidermal ODC activity” value in series [2] (setting [6]) was “about 53%”.
As to `CCCCCCCCCCCCCCCCCCNC(=O)OC1CCN(C(=O)OC[C@H](COC(=O)N(Cc2cccc[n+]2CC)C(=O)c2ccccc2OC)OC)CC1` [Compound (II), 1-ethyl-2-[N-(2-methoxy)benzoyl-N-{(2R)-2-methoxy-3-(4-octadecylcarbamoyloxy)piperidinocarbonyloxypropoxy}carbonyl]aminomethyl pyridinium chloride], the LD50 in series [3] (female) came out at 22.9 mg/kg; in series [3] (male), 18.2 mg/kg; in series [4] (female) it was 50 mg/kg; in series [4] (male), 46.8 mg/kg. Also, the “Epidermal ODC Activity” value in series [2] (0.5 μmol, P < 0.05 vs. TPA control) is given as 0.379 ± 0.130 nmol CO2 /mg protein; in series [2] (setting [5]), 0.136 ± 0.066 nmol CO2 /mg protein. Besides, the “inhibition of TPA-induced increase in epidermal ODC activity” value in series [2] (0.5 μmol, significant) is “about 52%”; in series [2] (setting [6]), roughly 83%. Also, the “inhibition against MPO activity” value with MPO (myeloperoxidase) (4 nmol/ear) is “did not show inhibition”; with MPO (myeloperoxidase) (20 nmol/ear) it was “did not show inhibition”; in the series on MPO (myeloperoxidase) (100 nmol/ear) it was “about 46%”. For the same molecule, the “MPO Activity” value with MPO (myeloperoxidase) (4 nmol/earlobe) is on record as 7.63 ± 1.30 U/mg, protein; with MPO (myeloperoxidase) (20 nmol/earlobe), 8.51 ± 1.21 U/mg, protein; in the series on MPO (myeloperoxidase) (100 nmol/earlobe), 3.45 ± 1.06 U/mg, protein. The “inhibition for TPA-induced earlobe edema” value in series [1] (4 nmol/ear) is on record as “no inhibition”; in series [1] (20 nmol/ear) it was “no inhibition”; in series [1] (100 nmol/ear, significant), “about 81%”. Further, the Right earlobe edema in series [1] (4 nmol/earlobe) was 105.9 ± 33.4 μm; in series [1] (20 nmol/earlobe), 92.7 ± 19.8 μm; in series [1] (100 nmol/earlobe, P < 0.05), 16.7 ± 3.0 μm.

By LD50 is commonly meant the dose at which mortality reaches 50%. Read a high LD50 as a less toxic substance.
